Test results taken from US20080193397A1, “Use of Peroxide Decomposers Method For the Treatment of a Material Other Than the Human Body” (BASF Aktiengesellscaft, priority 2005, published 2008).

Assay: Squalene degradation test with free-radical initiator V65 (protective factor QS, synergy with tocopherol)
Design: key to QS: QS = degradation rate without stabilizer / degradation rate with it
Conditions: squalene content by GC; for QS: 250 ppm test substance in 2% azobis(2,4-dimethylvaleronitrile) in squalene, stored open 30 days at 40° C., QSx=degradation rate0/degradation ratex; for QS + 250 ppm Tocopherol: 250 ppm test substance plus 250 ppm tocopherol in 2% azobis(2,4-dimethylvaleronitrile) in squalene, 30 days at 40° C.
Description: General procedure for determining the synergistic effect of peroxide decomposers used according to the invention with tocopherol
3 ml of a 2% strength solution of azobis(2,4.dimethylvaleronitrile). (V65, Wako Chemical Co.) in squalene are poured together with 250 ppm of test substance (based on the squalene solution) into Fiolax test tubes ([…]) and thoroughly mixed using a laboratory shaker. The samples are then stored open in a circulatory drying cabinet for 30 days at 40° C. At intervals of 7 days, the squalene content of the samples is ascertained using gas chromatography. The reference used is a sample without the […]. The data points are documented in an XY graph and the effectiveness of the test substances is determined by reference to the slope of the decomposition curves in comparison to the reference sample.
A measure of the protective effect of a test compound is the factor QS, which is a measure of how much a stabilizer reduces the degradation rate. QSx=degradation rate0/degradation ratex

Molecule	QS	QS + 250 ppm Tocopherol
Sc1nccs1 [compound 3]	2.75	4.25
S=c1cc[nH]c(=S)[nH]1 [compound 4]	1.13	2.08
CCCc1cc(O)nc(S)n1 [compound 5]	2.58	4.44
S=C1CSc2ccccc2N1 [compound 6]	3.03	3.75
On1ccccc1=S [compound 7]	1.47	2.58
Sc1nnc(-c2ccccc2)[nH]1 [compound 8]	1.34	1.8
Oc1cccnc1S [compound 9]	1.66	2.25
O=C(O)c1cccnc1S [compound 10]	1.18	1.65
Tocopherol [reference compound]	1.3	–
